# Laboratory results from ChEMBL document CHEMBL1201862, “PubChem BioAssay data set” (2004).
#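 96-well plates; 48 h exposure; 5 concentrations. Endpoints by linear interpolation between flanking doses. Not reached: highest tested concentration assigned. The concentration for 50% growth inhibition is given as GI50.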 Active and inactive are the calls of the source. Cut-off read from the data, not from the text of the source: active = GI50 up to about 1.1 µM and inactive = higher.
# What was measured:
# Experiment in all cases: inhibition of tumour cell growth, NCI panel, 48 h
# [1] = test system: SF-268
# [2] = test system: CCRF-CEM
# [3] = test system: UACC-257
# [4] = test system: IGROV-1
# [5] = test system: OVCAR-5
# [6] = test system: HL-60
# [7] = test system: NCI-H226
# [8] = test system: TK-10
# [9] = test system: COLO 205
# [10] = test system: EKVX
# [11] = test system: ACHN
# [12] = test system: MDA-MB-435
# [13] = test system: BT-549
# [14] = test system: SW-620
# [15] = test system: SK-MEL-28
# [16] = test system: SK-MEL-5
# [17] = test system: NCI-H522
# [18] = test system: SN12C
# [19] = test system: SNB-75
# [20] = test system: M14
Structure (SMILES),GI50 [1],GI50 [2],GI50 [3],GI50 [4],GI50 [5],GI50 [6],GI50 [7],GI50 [8],GI50 [9],GI50 [10],GI50 [11],GI50 [12],GI50 [13],GI50 [14],GI50 [15],GI50 [16],GI50 [17],GI50 [18],GI50 [19],GI50 [20]
Nc1c(Cl)ncnc1NCC1(CO)CCC1,> 100 µM (inactive),> 100 µM (inactive),63.4 µM (inactive),> 100 µM (inactive),> 100 µM (inactive),> 100 µM (inactive),> 100 µM (inactive),> 100 µM (inactive),> 100 µM (inactive),90.4 µM (inactive),> 100 µM (inactive),> 100 µM (inactive),> 100 µM (inactive),> 100 µM (inactive),> 100 µM (inactive),79.4 µM (inactive),> 100 µM (inactive),> 100 µM (inactive),> 100 µM (inactive),–
Cc1ccc([S+]([O-])/C=C(\NC(=O)OCc2ccccc2)C(F)(F)F)cc1 (stereo not given),–,31.6 µM (inactive),78 µM (inactive),45.3 µM (inactive),52 µM (inactive),18 µM (inactive),34.4 µM (inactive),80.2 µM (inactive),58.6 µM (inactive),46.6 µM (inactive),17.8 µM (inactive),22.4 µM (inactive),> 100 µM (inactive),19.3 µM (inactive),22.1 µM (inactive),60.4 µM (inactive),29.8 µM (inactive),45.4 µM (inactive),18.8 µM (inactive),> 100 µM (inactive)
NC(=O)C1CCN(Cc2c(Cl)c(Cl)c(CN3CCC(C(N)=O)CC3)c(Cl)c2Cl)CC1,44.7 µM (inactive),> 100 µM (inactive),> 100 µM (inactive),–,> 100 µM (inactive),> 100 µM (inactive),> 100 µM (inactive),> 100 µM (inactive),> 100 µM (inactive),38.6 µM (inactive),> 100 µM (inactive),> 100 µM (inactive),> 100 µM (inactive),> 100 µM (inactive),> 100 µM (inactive),> 100 µM (inactive),> 100 µM (inactive),> 100 µM (inactive),24.3 µM (inactive),86.3 µM (inactive)
CNC(=O)N(CCC#N)CCCN(C(=O)N(C)C)c1ccccc1,> 100 µM (inactive),> 100 µM (inactive),> 100 µM (inactive),> 100 µM (inactive),> 100 µM (inactive),> 100 µM (inactive),> 100 µM (inactive),> 100 µM (inactive),> 100 µM (inactive),> 100 µM (inactive),> 100 µM (inactive),> 100 µM (inactive),> 100 µM (inactive),> 100 µM (inactive),> 100 µM (inactive),> 100 µM (inactive),> 100 µM (inactive),> 100 µM (inactive),> 100 µM (inactive),> 100 µM (inactive)
c1csc(-c2ccc(-c3cccs3)c3nsnc23)c1,33.7 µM (inactive),8.32 µM (inactive),> 65 µM (inactive),0.875 µM (active),–,5.4 µM (inactive),> 33.5 µM (inactive),7.64 µM (inactive),6.56 µM (inactive),2.23 µM (inactive),> 65.2 µM (inactive),31.4 µM (inactive),> 52.7 µM (inactive),17.1 µM (inactive),20.2 µM (inactive),> 33.6 µM (inactive),> 100 µM (inactive),> 60.3 µM (inactive),19.7 µM (inactive),37.8 µM (inactive)
CN1CC[C@]23c4c5ccc(O)c4OC2c2[nH]ncc2C[C@H]3[C@H]1C5 (stereo not given in full),> 100 µM (inactive),> 100 µM (inactive),> 100 µM (inactive),> 100 µM (inactive),> 100 µM (inactive),> 100 µM (inactive),> 100 µM (inactive),> 100 µM (inactive),> 100 µM (inactive),> 100 µM (inactive),> 100 µM (inactive),> 100 µM (inactive),> 100 µM (inactive),–,> 100 µM (inactive),> 100 µM (inactive),> 100 µM (inactive),> 100 µM (inactive),94.6 µM (inactive),> 100 µM (inactive)
CC(C)C[C@H](NC(=O)[C@H](Cc1cccc2ccccc12)NC(=O)N1CCOCC1)B(O)O,< 0.01 µM (active),< 0.01 µM (active),< 0.01 µM (active),< 0.01 µM (active),< 0.01 µM (active),< 0.01 µM (active),0.000104 µM (active),< 0.01 µM (active),0.0122 µM (active),0.0334 µM (active),< 0.01 µM (active),< 0.01 µM (active),< 0.01 µM (active),0.000776 µM (active),< 0.01 µM (active),0.001 µM (active),< 0.01 µM (active),< 0.01 µM (active),< 0.01 µM (active),< 0.01 µM (active)
